# Data from PubChem BioAssay (NCI).
#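 How tested: cells in 96-well plates exposed to compound for 48 hours at five concentrations. At the TGI there is no net growth.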
# Tests used:
# Test in all cases: DTP human tumour cell line panel, 48 h
# SF-539 CNS = tested on: SF-539 CNS
# TK-10 renal = tested on: TK-10 renal
# NCI-H460 lung = tested on: NCI-H460 lung
# IGROV1 ovarian = tested on: IGROV1 ovarian
# NCI-H23 lung = tested on: NCI-H23 lung
# A549 NSCLC = tested on: A549 NSCLC
# OVCAR-3 ovarian = tested on: OVCAR-3 ovarian
# MCF7 breast = tested on: MCF7 breast
# HL-60(TB) leukemia = tested on: HL-60(TB) leukemia
# MDA-MB-231 breast = tested on: MDA-MB-231 breast
# SNB-19 CNS = tested on: SNB-19 CNS
# SF-295 CNS = tested on: SF-295 CNS
# HT29 colon = tested on: HT29 colon
# MDA-N = tested on: MDA-N
Structure (SMILES),TGI (SF-539 CNS) [µM],TGI (TK-10 renal) [µM],TGI (NCI-H460 lung) [µM],TGI (IGROV1 ovarian) [µM],TGI (NCI-H23 lung) [µM],TGI (A549 NSCLC) [µM],TGI (OVCAR-3 ovarian) [µM],TGI (MCF7 breast) [µM],TGI (HL-60(TB) leukemia) [µM],TGI (MDA-MB-231 breast) [µM],TGI (SNB-19 CNS) [µM],TGI (SF-295 CNS) [µM],TGI (HT29 colon) [µM],TGI (MDA-N) [µM]
Cc1cc(O)c2c(c1)C(=O)C=C(Br)C2=O,29.8,30.1,45.9,> 60.2,35.5,> 60.5,30.6,23.4,1.71,33.8,> 100,> 60.5,40.3,28.7
O=CN1CCN(C(=O)c2ccc(Cl)cc2)C1=S,61.7,28.2,52,28.5,53.6,28,28.7,11,44.1,34.5,29.5,76,33,31.5
CC(=O)c1c2c(cc3c1CC1(C3)Cc3ccc4c(c3C1=O)CCC4)CCC2 (stereo unspecified),> 100,> 100,> 100,> 100,> 100,> 100,> 100,> 100,15,> 100,> 100,> 100,> 100,> 100
[O-]/N=N\c1on[n+](CCc2ccccc2)c1Cc1c(/N=N/[O-])on[n+]1CCc1ccccc1,37.1,56.2,> 100,70,61.3,> 100,39.8,> 100,> 100,88.6,93.2,74.2,> 100,> 100
CC(C)CNC(=O)c1c(NC(=O)c2ccccc2)sc2[nH]c(=O)n(-c3ccccc3)c(=O)c12,> 84,75,> 100,> 100,> 100,> 100,> 100,> 100,> 100,52.6,75.8,67.1,> 100,> 100
CC(=O)OCC1OC(N2C(=O)CC(N)=Nc3ccccc32)C(OC(C)=O)C(OC(C)=O)C1OC(C)=O (stereo unspecified),67.5,> 100,> 100,> 100,> 100,> 100,> 100,> 100,> 100,> 100,> 100,> 100,> 100,> 100
O=C(Nc1ccc(Cl)cc1Cl)c1cc2nc3ccccc3c(=O)n2c2ccccc12,> 10,> 10,> 10,> 10,> 10,> 10,> 10,> 10,> 10,> 10,> 10,> 10,> 10,> 10
CC(=O)[C@H]1[C@@H](OCc2ccccc2)O[N+]([O-])=C(C)[C@@H]1c1ccccc1,45.5,> 100,> 100,> 100,> 100,> 100,57.7,> 100,40.8,> 100,> 100,> 100,33.8,> 100
Cc1ccccc1C(=O)NC(O)(C(F)(F)F)C(F)(F)F,> 100,> 100,> 100,> 100,> 100,> 100,> 100,> 100,> 100,> 100,> 100,> 100,> 100,> 100
